US20240197760A1, “ACTIVATORS OF INTEGRATED STRESS RESPONSE PATHWAY FOR PROTECTION AGAINST FERROPTOSIS” (Burke Neurological Institute, priority 2021, published 2024)

What was measured:
Assay type in all cases: cell-based, mouse
[1] = test system: AMPK; assay: AMPK phosphorylation (threonine 172) immunoblot in primary cortical neurons; details: increasing concentrations 1-15 mM, 4 h
Description: Whole cell proteins were extracted in Triton X-100 lysis buffer (1% Triton X-100, 1% SDS, 50 mM Tris-Cl, pH 7.4, 500 mM NaCl and 1 mM EDTA). Samples were boiled in Laemmli buffer and electrophoresed under reducing conditions on NuPAGER Novex 4-12% Bis-Tris Gel polyacrylamide gels (Invitrogen). Proteins were transferred to a nitrocellulose membrane (Bio-Rad) by electroblotting. Nonspecific binding was inhibited by incubation in Odyssey blocking buffer (LI-COR Biosciences). Antibodies against Glut3 (Abcam, Catalog no. AB41525, dilution 1:1000), actin (Sigma Aldrich, Catalog no. A5316, dilution 1:10000), BDNF (Santacruz Biotechnology, Catalog no. sc-546, dilution 1:10,000), tubulin (Sigma Aldrich, Catalog no. T8203, dilution 1:10000), p-AMPK (Cell Signaling Technology, Cat no. 2535L, dilution 1:1000), AMPK (Cell Signaling Technology, Cat no. 2532L, dilution 1:1000), GFP (Cell Signaling Technology, Cat no. 2555S, dilution 1:2000), elF2S1 (phospho S51) (Abcam, Catalog no. AB32157, dilution 1:500), and eIF2α (Cell Signaling Technology, Cat no. 9722, dilution 1:500) were diluted in odyssey blocking buffer and the membranes were incubated overnight at 4° C. […] Finally, proteins were detected using an Odyssey infrared imaging system (LI-COR Biosciences).

[2] = test system: Trib3 promoter, Bdnf promoter; assay: Promoter reporter luciferase assay in primary neurons; details: 2-DG 9 h treatment, reporter in mouse primary neurons
Description: Primary neurons were co-transfected with various plasmids such as different Bdnf exon promoters each tagged with firefly luciferase or Trib3 promoter tagged with firefly luciferase and pTK-renilla luciferase plasmid at 1:10 ratio using Lipofectamine 2000 (Thermo Fisher Scientific, catalog number—11668019) according to the manufacturer's instructions to control for transfection efficiency. […] Thereafter, luciferase activity was measured using dual luciferase assay kit (Promega) and bioluminometer (MDS Analytical Technologies). Final luciferase activity was calculated by normalizing firefly luciferase activity with Renilla luciferase activity and then the valued were converted to fold change with respect to control.

[3] = test system: ATF4; assay: ATF4 chromatin immunoprecipitation sequencing in primary neurons; details: 10 mM, 6 h
Description: ChIP-seq was performed according to the ChIPmentation protocol with minor modifications. In brief, 40 million primary neurons were used for each condition. Cells were fixed in methanol free formaldehyde (1% final concentration) for 10 min at room temperature with slow rotation to allow the cross-linking of chromatin proteins and DNA. Cross-linking was stopped by incubation with 0.125 M glycine for 5 min at room temperature. The cells were washed twice with ice-cold phosphate-buffered saline (PBS) and 2 ml of cell scrapping solution was added cell were scrapped and collected in respective tubes. Tubes with cells were centrifuged at 2800 rpm for 10 min at 4° C. and supernatant was aspirated out. Cell pellets left in the tube were resuspended in 300 μl of 0.25% SDS sonication buffer (10 mM Tris-HCl [pH 8.0], 2 mM EDTA, 0.25% SDS, and protease inhibitor cocktail). The lysates were transferred to 1.5 ml TPX microtubes for sonication (Diagenode, Catalog number: 20190430) and sonicated by Biorupter sonication device (Diagenode) to shear genomic DNA into 200-600 bp fragments. The lysates were centrifuged to remove debris and were then diluted 1:1.5 in equilibration buffer (10 mM Tris-HCl [pH 8.0], 1 mM EDTA, 1.67% Triton X-100, 0.17% sodium deoxycholate, 233 mM NaCl, and protease inhibitor cocktail). […]

OC[C@H]1OC(O)C[C@@H](O)[C@@H]1O (stereo partly drawn) [2-DG, (4R,5S,6R)-6-(hydroxymethyl)oxane-2,4,5-triol]
level of AMPK phosphorylation at threonine 172 [1]: biphasic
Trib3 promoter activity with or without mutation in ATF4 binding site [2]: ATF4 binding site mutation completely blocked the 2-DG led induction of Trib3 promoter activity
ATF4 binding at Bdnf (ChIP-Seq) [3]: selective enrichment of ATF4 close to the transcription start site of Bdnf
ATF4 binding to other plasticity genes (ChIP-Seq) [3]: enhanced binding of ATF4 to several plasticity genes
